Test results from article PMC3278557 (Pharmacological Research, 2011).

Tested on: cultured neonatal rat cardiomyocytes
Assay: Effects on hypoxic cardiomyocytes
Assay type: cell-based

SMILES | antagonism of the protective effect of 6 (1 nM) (antagonist at 1 μM, LDH release or PI staining) | anti-hypoxic protective potency (concentration range) [nM] | cardioprotection of hypoxic cardiomyocytes (100 nM)
CCCOC(=O)c1c(-c2ccccc2)nc(CC)c(C(=O)SCC)c1CCC [MRS1523, 5-propyl-2-ethyl-4-propyl-3-(ethylsulfanylcarbonyl)-6-phenylpyridine-5-carboxylate] | completely reversed | – | –
CNC(=O)[C@H]1O[C@@H](n2cnc3c(NCc4cccc(I)c4)nc(Cl)nc32)[C@H](O)[C@@H]1O [Cl-IB-MECA, 2-chloro-N^6-(3-iodobenzyl)-5′-N-methylcarboxamidoadenosine] | – | ~100 | provided cardioprotection
